Values after ≈ are worked out from the molar mass of the structure shown. “Also recorded” adds a separate entry of the source. Read-outs that look alike come from different tables or passages of the source.
What was measured:
[1] = test system: various groups of microorganisms; experiment: Antimicrobial activity (MIC), all microorganisms tested; assay type: cell-based
Procedure: (§1) The antimicrobial activity of the compounds according to the present invention were compared with the results obtained for squalamine as reported in Proc. Nat. Acad. Sci. USA 90:1354 (1993), supra, the disclosure of which is incorporated in toto herein. The data reported in the following table is the minimum inhibitory concentration (MIC) required for complete inhibition of microbial growth. The MIC was determined utilizing known micro-broth dilution methods in which inocula of 10^6 /ml of the test organism were incubated in 0.5× trypticase soy broth at 35° C. for 24 hours. MIC's were also tested under various pH conditions, with calcium chloride or magnesium chloride, or with immobilized horse serum.
(§2) The numbers in parentheses contained in the table correspond to accession numbers with the American Type Culture Collection (reference strains were either obtained from the American Type Culture Collection or from the Microbiology Laboratory at Memorial Sloan-Kettering Cancer Center; Bacterial strains were maintained on Columbia 5% sheep blood agar plates, and fungi were maintained on Sabouraud Dextrose agar plates).

S. aureus (H20809) = experiment: MIC, micro-broth dilution; assay type: cell-based; conditions: Staphylococcus aureus, read-out: ANTIMICROBIAL ACTIVITY (MIC)
Procedure: as §1, §2

E. faecium (T6480-9) = experiment: MIC, micro-broth dilution; assay type: cell-based; conditions: Enterococcus faecium, 35° C., 24 hours, read-out: ANTIMICROBIAL ACTIVITY (MIC)
Procedure: as §1, §2

C. neoformans (M68979) = experiment: MIC, micro-broth dilution; assay type: cell-based; conditions: Cryptococcus neoformans, 24 h, read-out: ANTIMICROBIAL ACTIVITY (MIC)
Procedure: as §1, §2

S. aureus (29213) = experiment: MIC, micro-broth dilution; assay type: cell-based; conditions: Staphylococcus aureus, 24 h, read-out: ANTIMICROBIAL ACTIVITY (MIC)
Procedure: as §1, §2

S. aureus (25923) = experiment: MIC, micro-broth dilution; assay type: cell-based; conditions: Staphylococcus aureus, 35° C., 24 hours, read-out: ANTIMICROBIAL ACTIVITY (MIC)
Procedure: as §1, §2

K. pneumoniae (13883) = experiment: MIC, micro-broth dilution; assay type: cell-based; conditions: Klebsiella pneumoniae, 24 h, read-out: ANTIMICROBIAL ACTIVITY (MIC)
Procedure: as §1, §2

S. marcescens (13880) = experiment: MIC, micro-broth dilution; assay type: cell-based; conditions: for MIC: Serratia marcescens, 24 h, read-out: ANTIMICROBIAL ACTIVITY (MIC)
Procedure: as §1, §2

S. pyrogenes (19615) = experiment: MIC, micro-broth dilution; assay type: cell-based; conditions: 24 h, read-out: ANTIMICROBIAL ACTIVITY (MIC)
Procedure: as §1, §2

S. epidermidis (12228) = experiment: MIC, micro-broth dilution; assay type: cell-based; conditions: Staphylococcus epidermidis, 35° C., 24 hours, read-out: ANTIMICROBIAL ACTIVITY (MIC)
Procedure: as §1, §2

C. neoformans (90012) = experiment: MIC, micro-broth dilution; assay type: cell-based; conditions: Cryptococcus neoformans, 24 h, read-out: ANTIMICROBIAL ACTIVITY (MIC)
Procedure: as §1, §2

P. aeruginosa (2853) = experiment: MIC, micro-broth dilution; assay type: cell-based; conditions: Pseudomonas aeruginosa, 24 h, read-out: ANTIMICROBIAL ACTIVITY (MIC)
Procedure: as §1, §2

A. fumigatus (H1120) = experiment: MIC, micro-broth dilution; assay type: cell-based; conditions: Aspergillus fumigatus, 35° C., 24 hours, read-out: ANTIMICROBIAL ACTIVITY (MIC)
Procedure: as §1, §2

S. agalactiae (13813) = experiment: MIC, micro-broth dilution; assay type: cell-based; conditions: Streptococcus agalactiae, 35° C., 24 hours, read-out: ANTIMICROBIAL ACTIVITY (MIC)
Procedure: as §1, §2

C. albicans (90028) = experiment: MIC, micro-broth dilution; assay type: cell-based; conditions: Candida albicans, 35° C., 24 hours, read-out: ANTIMICROBIAL ACTIVITY (MIC)
Procedure: as §1, §2

P. aeruginosa (10145) = experiment: MIC, micro-broth dilution; assay type: cell-based; conditions: Pseudomonas aeruginosa, 35° C., 24 hours, read-out: ANTIMICROBIAL ACTIVITY (MIC)
Procedure: as §1, §2

S. pneumoniae (6305) = experiment: MIC, micro-broth dilution; assay type: cell-based; conditions: Streptococcus pneumoniae, 35° C., 24 hours, read-out: ANTIMICROBIAL ACTIVITY (MIC)
Procedure: as §1, §2

E. faecalis (29212) = experiment: MIC, micro-broth dilution; assay type: cell-based; conditions: Enterococcus faecalis, 35° C., 24 hours, read-out: ANTIMICROBIAL ACTIVITY (MIC)
Procedure: as §1, §2

A. fumigatus (H29709) = experiment: MIC, micro-broth dilution; assay type: cell-based; conditions: Aspergillus fumigatus, 35° C., 24 hours, read-out: ANTIMICROBIAL ACTIVITY (MIC)
Procedure: as §1, §2

E. cloacae (13047) = experiment: MIC, micro-broth dilution; assay type: cell-based; conditions: Enterobacter cloacae, 35° C., 24 hours, read-out: ANTIMICROBIAL ACTIVITY (MIC)
Procedure: as §1, §2

E. coli (25922) = experiment: MIC, micro-broth dilution; assay type: cell-based; conditions: Escherichia coli, 35° C., 24 hours, read-out: ANTIMICROBIAL ACTIVITY (MIC)
Procedure: as §1, §2

P. vulgaris (13315) = experiment: MIC, micro-broth dilution; assay type: cell-based; conditions: Proteus vulgaris, 35° C., 24 hours, read-out: ANTIMICROBIAL ACTIVITY (MIC)
Procedure: as §1, §2

[2] = Hemolytic activity, minimal hemolytic concentration (MHC); assay type: cell-based, sheep; conditions: sheep, red blood cells;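 further: MCC here is the minimal hemolytic concentration (MHC)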
Procedure: Hemolytic activity of the squalamine mimics according to the present invention were also studied by incubating sheep red blood cells for 24 hours at 37° C. in saline (final concentration of 0.5%) with or without respective concentrations of the squalamine mimics. The minimal hemolytic concentration (MHC) was determined as the lowest concentration of a mimic that raised visible hemolysis.

Row | SMILES | MIC (E. faecium (T6480-9)) | MIC (C. neoformans (M68979)) | MIC (S. aureus (29213)) | MIC (S. aureus (25923)) | MIC (K. pneumoniae (13883)) | MIC (S. marcescens (13880)) | MIC (S. pyrogenes (19615)) | MIC (S. epidermidis (12228)) | MIC (C. neoformans (90012)) | MIC (P. aeruginosa (2853)) | MIC (A. fumigatus (H1120)) | MIC (S. agalactiae (13813)) | MIC (C. albicans (90028)) | MIC (P. aeruginosa (10145)) | MIC (S. pneumoniae (6305)) | MIC (E. faecalis (29212)) | MIC (A. fumigatus (H29709)) | MIC (E. cloacae (13047)) | MIC (E. coli (25922)) | MIC (P. vulgaris (13315)) | other results
1 | C[C@H](CCC(=O)NCCCNCCCCNCCCN)[C@H]1CC[C@H]2[C@@H]3CC[C@@H]4CCCC[C@]4(C)[C@H]3CC[C@]12C [SM-19] | 3.13 µg/mL (≈ 5.74 µM) | 0.78 µg/mL (≈ 1.43 µM) | 3.13 µg/mL (≈ 5.74 µM) | 3.13 µg/mL (≈ 5.74 µM) | 6.25 µg/mL (≈ 11.5 µM) | > 100 µg/mL | 3.13 µg/mL (≈ 5.74 µM) | 1.56 µg/mL (≈ 2.86 µM) | 0.78 µg/mL (≈ 1.43 µM) | 12.5 µg/mL (≈ 22.9 µM) | 3.13 µg/mL (≈ 5.74 µM) | 3.13 µg/mL (≈ 5.74 µM) | 3.13 µg/mL (≈ 5.74 µM) | > 100 µg/mL | 0.78 µg/mL (≈ 1.43 µM) | 6.25 µg/mL (≈ 11.5 µM) | 3.13 µg/mL (≈ 5.74 µM) | > 100 µg/mL | 3.13 µg/mL (≈ 5.74 µM) | > 100 µg/mL | antimicrobial activity (in words) [1]: highly active; MIC (S. aureus (H20809); 24 h): 3.13 µg/mL (≈ 5.74 µM); MCC at 24 h [2]: 6.25 µg/mL
2 | C[C@H](CCC(=O)NCCNCCNCCN)[C@H]1CC[C@H]2[C@@H]3CC[C@@H]4C[C@H](O)CC[C@]4(C)[C@H]3CC[C@]12C [SM-27] | 12.5 µg/mL (≈ 24.8 µM) | 3.13 µg/mL (≈ 6.2 µM) | 6.25 µg/mL (≈ 12.4 µM) | 6.25 µg/mL (≈ 12.4 µM) | 6.25 µg/mL (≈ 12.4 µM) | 12.5 µg/mL (≈ 24.8 µM) | 1.56 µg/mL (≈ 3.09 µM) | 3.13 µg/mL (≈ 6.2 µM) | 3.13 µg/mL (≈ 6.2 µM) | 12.5 µg/mL (≈ 24.8 µM) | 100 µg/mL (≈ 198 µM) | 3.13 µg/mL (≈ 6.2 µM) | 25 µg/mL (≈ 49.5 µM) | 25 µg/mL (≈ 49.5 µM) | 3.13 µg/mL (≈ 6.2 µM) | 12.5 µg/mL (≈ 24.8 µM) | 100 µg/mL (≈ 198 µM) | 25 µg/mL (≈ 49.5 µM) | 3.13 µg/mL (≈ 6.2 µM) | 12.5 µg/mL (≈ 24.8 µM) | MIC (S. aureus (H20809); 24 h): 6.25 µg/mL (≈ 12.4 µM); activity against S. marcescens (S. marcescens (13880); in words): found even against S. marcescens; also recorded: effective against S. marcescens; MCC at 24 h [2]: 50 µg/mL
3 | C[C@H](CCC(=O)NCCCNCCCCNCCCN)[C@H]1CC[C@H]2[C@@H]3C[C@H](O)[C@@H]4C[C@H](O)CC[C@]4(C)[C@H]3CC[C@]12C [SM-28] | 50 µg/mL (≈ 86.7 µM) | 3.13 µg/mL (≈ 5.43 µM) | 6.25 µg/mL (≈ 10.8 µM) | 6.25 µg/mL (≈ 10.8 µM) | > 100 µg/mL | > 100 µg/mL | 1.56 µg/mL (≈ 2.7 µM) | 3.13 µg/mL (≈ 5.43 µM) | 3.13 µg/mL (≈ 5.43 µM) | 25 µg/mL (≈ 43.3 µM) | 25 µg/mL (≈ 43.3 µM) | 12.5 µg/mL (≈ 21.7 µM) | 6.25 µg/mL (≈ 10.8 µM) | 25 µg/mL (≈ 43.3 µM) | 50 µg/mL (≈ 86.7 µM) | 50 µg/mL (≈ 86.7 µM) | 25 µg/mL (≈ 43.3 µM) | > 100 µg/mL | 50 µg/mL (≈ 86.7 µM) | 50 µg/mL (≈ 86.7 µM) | antimicrobial activity (in words) [1]: lesser activity; MIC (S. aureus (H20809); 24 h): 6.25 µg/mL (≈ 10.8 µM); MCC at 24 h [2]: > 100 µg/mL
4 | C[C@H](CCC(=O)NCCNCCNCCN)[C@H]1CC[C@H]2[C@@H]3C[C@H](O)[C@@H]4C[C@H](O)CC[C@]4(C)[C@H]3CC[C@]12C [SM-32] | 100 µg/mL (≈ 192 µM) | 25 µg/mL (≈ 48 µM) | 25 µg/mL (≈ 48 µM) | 25 µg/mL (≈ 48 µM) | 50 µg/mL (≈ 96 µM) | > 100 µg/mL | 12.5 µg/mL (≈ 24 µM) | 25 µg/mL (≈ 48 µM) | 25 µg/mL (≈ 48 µM) | 25 µg/mL (≈ 48 µM) | 50 µg/mL (≈ 96 µM) | 25 µg/mL (≈ 48 µM) | 25 µg/mL (≈ 48 µM) | 50 µg/mL (≈ 96 µM) | 25 µg/mL (≈ 48 µM) | 100 µg/mL (≈ 192 µM) | 50 µg/mL (≈ 96 µM) | > 100 µg/mL | 25 µg/mL (≈ 48 µM) | 50 µg/mL (≈ 96 µM) | MIC (S. aureus (H20809); 24 h): 25 µg/mL (≈ 48 µM); MCC at 24 h [2]: > 100 µg/mL
5 | C[C@H](CCC(=O)NCCCNCCCCNCCCN)[C@H]1CC[C@H]2[C@@H]3[C@H](OS(=O)(=O)O)C[C@@H]4C[C@H](OS(=O)(=O)O)CC[C@]4(C)[C@H]3CC[C@]12C [SM-35] | 6.25 µg/mL (≈ 8.48 µM) | 12.5 µg/mL (≈ 17 µM) | 6.25 µg/mL (≈ 8.48 µM) | 6.25 µg/mL (≈ 8.48 µM) | 12.5 µg/mL (≈ 17 µM) | > 100 µg/mL | 3.13 µg/mL (≈ 4.25 µM) | 3.13 µg/mL (≈ 4.25 µM) | 12.5 µg/mL (≈ 17 µM) | 12.5 µg/mL (≈ 17 µM) | 25 µg/mL (≈ 33.9 µM) | 6.25 µg/mL (≈ 8.48 µM) | 25 µg/mL (≈ 33.9 µM) | 25 µg/mL (≈ 33.9 µM) | 3.13 µg/mL (≈ 4.25 µM) | 6.25 µg/mL (≈ 8.48 µM) | 25 µg/mL (≈ 33.9 µM) | 12.5 µg/mL (≈ 17 µM) | 6.25 µg/mL (≈ 8.48 µM) | 25 µg/mL (≈ 33.9 µM) | MIC (S. aureus (H20809); S. aureus (H20809), 35° C., 24 hours): 8.25 µg/mL (≈ 11.2 µM); MCC at 24 h [2]: 6.25 µg/mL
